ChEMBL document CHEMBL5154877, “Novel Sphingosine Kinase 1 Inhibitor Suppresses Growth of Solid Tumor and Inhibits the Lung Metastasis of Triple-Negative Breast Cancer” (J Med Chem, 2022)
Activity calls are given as the source filed them. No cut-off for these calls is given here.

Key:
MDA-MB-231 [1] = assay: Antimetastatic activity against human MDA-MB-231 cells […] assessed as downregulation of MMP-9 at 30 uM incubated for 2 to 12 hrs by western blot analysis; assay type: functional, cell-based; conditions: time 2-12 hrs
HT-29 [2] = assay: Induction of cell cycle arrest in human HT-29 cells assessed as accumulation at G0/G1 phase at 10 uM incubated for 24 hrs by PI staining based flow cytometry; assay type: functional
HT-29 [3] = assay: Induction of cell cycle arrest at G1 phase in human HT-29 cells assessed as increase in P21 expression at 30 uM incubated for 24 hrs by Western blot analysis; assay type: functional, cell-based
HT-29 [4] = assay: Induction of cell cycle arrest at G0/G1 phase in human HT-29 cells assessed as decrease in p-Rb expression at 10 to 30 uM incubated for 24 hrs by Western blot analysis; assay type: functional, cell-based; conditions: dose 10-30 µM
HT-29 [5] = assay: Induction of cell cycle arrest at G0/G1 phase in human HT-29 cells assessed as reduction in cyclinA expression at 10 to 30 uM incubated for 24 hrs by Western blot analysis; assay type: functional, cell-based; conditions: dose 10-30 µM
HT-29 [6] = assay: Induction of cell cycle arrest at G0/G1 phase in human HT-29 cells assessed as reduction in cyclinE1 expression at 10 to 30 uM incubated for 24 hrs by Western blot analysis; assay type: functional, cell-based; conditions: dose 10-30 µM
HT-29 [7] = assay: Induction of cell cycle arrest at G0/G1 phase in human HT-29 cells assessed as reduction in cyclinD1 expression at 10 to 30 uM incubated for 24 hrs by Western blot analysis; assay type: functional, cell-based; conditions: dose 10-30 µM
HT-29 [8] = assay: Induction of cell cycle arrest at G0/G1 phase in human HT-29 cells assessed as reduction in CDK6 expression at 10 to 30 uM incubated for 24 hrs by Western blot analysis; assay type: functional, cell-based; conditions: dose 10-30 µM
MDA-MB-231 [9] = assay: Induction of apoptosis in human MDA-MB-231 cells assessed as early apoptotic cells at 10 uM incubated for 48 hrs by Annexin V-FITC/PI staining based flow cytometry (reference value: 2.35 %); assay type: functional
MDA-MB-231 [10] = assay: Induction of apoptosis in human MDA-MB-231 cells assessed as viable cells at 10 uM incubated for 48 hrs by Annexin V-FITC/PI staining based flow cytometry (reference value: 94.3 %); assay type: functional; conditions: read-out: Activity
MDA-MB-231 [11] = assay: Induction of apoptosis in human MDA-MB-231 cells assessed as viable cells at 30 uM incubated for 48 hrs by Annexin V-FITC/PI staining based flow cytometry (reference value: 94.3 %); assay type: functional; conditions: read-out: Activity
MDA-MB-231 [12] = assay: Antimigratory activity against human MDA-MB-231 cells assessed as reduction in cell migration at 40 uM incubated for 8 hrs by crystal violet staining microscopy based transwell migration assay; assay type: functional
MDA-MB-231 [13] = assay: Antimigratory activity against human MDA-MB-231 cells assessed as inhibition of cell migration in human MDA-MB-231 cells at 40 uM incubated for 15 hrs by wound healing assay; assay type: functional, cell-based
[14] = Tmax in mouse at 20 mg/kg, po; assay type: ADME, organism-based; conditions: in vivo
[15] = Cmax in mouse at 20 mg/kg, po; assay type: ADME, organism-based; design: dose 20 mg/kg, route po; conditions: in vivo
[16] = AUClast in mouse at 20 mg/kg, po; assay type: ADME, organism-based; design: time 0 - last, dose 20 mg/kg, route po; conditions: in vivo
[17] = AUClast in mouse at 2 mg/kg, iv; assay type: ADME, organism-based; design: time 0 - last, dose 2 mg/kg, route iv; conditions: in vivo
[18] = Half life in mouse at 20 mg/kg, po; assay type: ADME, organism-based; conditions: in vivo
[19] = Half life in mouse at 2 mg/kg, iv; assay type: ADME, organism-based; conditions: in vivo
[20] = Clearance in mouse at 2 mg/kg, iv; assay type: ADME, organism-based; conditions: in vivo
[21] = Oral bioavailability in mouse at 20 mg/kg; assay type: ADME, organism-based; conditions: in vivo
HT-29 [22] = assay: Antitumor activity against human HT-29 cells xenografted in BALB/c mouse assessed as tumor growth inhibition at 50 mg/kg/day, ip for 3 weeks and measured every 3 days by caliper method; assay type: functional, organism-based
[23] = Toxicity in BALB/c mouse xenografted with human HT-29 cells assessed as change in body weight at 50 mg/kg/day, ip for 3 weeks and measured every 3 days; assay type: organism-based; conditions: in vivo, 504 h
[24] = Toxicity in BALB/c mouse xenografted with human MDA-MB-231 cells assessed as change in body weight at 50 mg/kg/day, ip for 3 weeks and measured every 3 days; assay type: organism-based; conditions: in vivo, 504 h
[25] = Toxicity in BALB/c mouse xenografted with human MDA-MB-231 cells assessed as body weight change at 100 mg/kg, ip administrated for 28 days; assay type: organism-based; conditions: in vivo, 672 h, time 28 day
MDA-MB-231 [26] = assay: Antimetastatic activity against human MDA-MB-231 cells xenografted in BALB/c mouse assessed as decrease in plasma S1P levels at 100 mg/kg, ip for 28 days; assay type: functional, organism-based; conditions: time 28.0 day
MDA-MB-231 [27] = assay: Antimetastatic activity against human MDA-MB-231 cells […] assessed as inhibition of NF-kappaB p65 phosphorylation at 30 uM incubated for 2 to 12 hrs by Western blot analysis; assay type: functional, cell-based; conditions: time 2-12 hrs
MDA-MB-231 [28] = assay: Antimetastatic activity against human MDA-MB-231 cells […] assessed as inhibition of FSCN1 phosphorylation at 30 uM incubated for 2 to 12 hrs by western blot analysis; assay type: functional, cell-based; conditions: time 2-12 hrs
MDA-MB-231 [29] = assay: Antimetastatic activity against human MDA-MB-231 cells […] assessed as upregulation of phosphorylated beta-catenin at 30 uM incubated for 2 to 12 hrs by western blot analysis; assay type: functional, cell-based; conditions: time 2-12 hrs
MDA-MB-231 [30] = assay: Induction of apoptosis in human MDA-MB-231 cells assessed as necrotic cells at 10 uM incubated for 48 hrs by Annexin V-FITC/PI staining based flow cytometry (reference value: 1.42 %); assay type: functional
MDA-MB-231 [31] = assay: Induction of apoptosis in human MDA-MB-231 cells assessed as late apoptotic cells at 10 uM incubated for 48 hrs by Annexin V-FITC/PI staining based flow cytometry (reference value: 1.96 %); assay type: functional
[32] = Half life in mouse at 10 mg/kg, ip; assay type: ADME, organism-based; conditions: in vivo
MDA-MB-231 [33] = assay: Induction of apoptosis in human MDA-MB-231 cells assessed as early apoptotic cells at 30 uM incubated for 48 hrs by Annexin V-FITC/PI staining based flow cytometry (reference value: 2.35 %); assay type: functional
MDA-MB-231 [34] = assay: Induction of apoptosis in human MDA-MB-231 cells assessed as late apoptotic cells at 30 uM incubated for 48 hrs by Annexin V-FITC/PI staining based flow cytometry (reference value: 1.96 %); assay type: functional
MDA-MB-231 [35] = assay: Induction of apoptosis in human MDA-MB-231 cells assessed as necrotic cells at 30 uM incubated for 48 hrs by Annexin V-FITC/PI staining based flow cytometry (reference value: 1.42 %); assay type: functional

- Tmax [14]: 0.25 h
- Cmax [15]: 16.8 ng/mL
- AUC(0-t) [16]: 32.3 ng·h/mL
- AUC(0-t) [17]: 168 ng·h/mL
- half-life [18]: 4.3 h
- half-life [19]: 1.01 h
- clearance [20]: 207 mL/min/kg
- bioavailability [21]: 1.92%
- half-life [32]: 1.2 h
Structure (SMILES): Cc1cc(CS(=O)(=O)c2ccccc2)cc(OCc2ccc(CN3CCC[C@@H]3CO)cc2)c1
- Activity (MDA-MB-231 [1]): Active
- Activity (HT-29 [2]): Active
- Activity (HT-29 [3]): Active
- Activity (HT-29 [4]): Active
- Activity (HT-29 [5]): Active
- Activity (HT-29 [6]): Active
- Activity (HT-29 [7]): Active
- Activity (HT-29 [8]): Active
- Activity (MDA-MB-231 [9]): 4.89%
- viability at 10 µM (MDA-MB-231 [10]): 85.8%
- viability at 30 µM (MDA-MB-231 [11]): 65.4%
- Activity (MDA-MB-231 [12]): Active
- Activity (MDA-MB-231 [13]): Active
- Activity (HT-29 [22]): Active
- Activity [23]: Non-Toxic
- Activity [24]: Non-Toxic
- Activity [25]: Non-Toxic
- Activity (MDA-MB-231 [26]): Active
- Activity (MDA-MB-231 [27]): Active
- Activity (MDA-MB-231 [28]): Active
- Activity (MDA-MB-231 [29]): Active
- Activity (MDA-MB-231 [30]): 2.22%
- Activity (MDA-MB-231 [31]): 7.11%
- Activity (MDA-MB-231 [33]): 25.2%
- Activity (MDA-MB-231 [34]): 7.47%
- Activity (MDA-MB-231 [35]): 1.99%
